# Results reported in patent publication US6069146A, “Halimide, a cytotoxic marine natural product, and derivatives thereof” (The Regents of the University of California, priority 1998, dated 2000).
# Like-named read-outs stand apart in the source and are kept apart here.
# Tests used:
# [1] = test system: P388 mouse leukemia cells; assay: In vivo P388 murine leukemia model, survival
# Method: The efficacy of halimide was determined in vivo in a mouse P388 model. 1×10^6 P388 mouse leukemia cells were implanted in the intraperitoneal cavity of BALB/cX DBA/2 F1 (CDF1) or C57/BL6XDBA/2 F1 (BDF1) mice (Rose et al., Cancer Res. 43:1504-1510 (1983), which is incorporated herein by reference). Halimide was dissolved in ethanol and diluted with water to a concentration of 2.7 mg/ml. Halimide was injected intraperitoneally or intravenously beginning on the first day after tumor implantation and every day thereafter for five treatments. Increases in life span were reflected by the median survival time of treated (T) versus control (C) groups; T/C was calculated. For the P388 tumor model, a T/C […] 125% is considered to be a significant increase in survival. An optimal dose of 27 mg/kg/injection, ip, produced a T/C of 153%.
# carcinoma cells = assay: Cell cycle arrest of carcinoma cells; type: cell-based; details: 5 μM halimide
# Excerpt: As used herein, the term "premitotic stage," when used in reference to cells, means that the cells have not attained the anaphase stage of mitosis and, therefore, have not yet begun to divide. […] Thus, the invention provides a method of reducing or inhibiting the ability of the cells to proceed through mitosis and, therefore, proliferate, by contacting the cells with a compound of the invention.
# [2] = test system: human colon carcinoma cell line HCT116; assay: MTS cytotoxicity assay, HCT116; type: cell-based; details: HCT-116, HCT116, 72 hours, read-out: IC50, inhibition of cell proliferation
# Method: (§1) The cytotoxicity of halimide was assessed in vitro against the human colon carcinoma cell line HCT116 and the human ovarian carcinoma cell line A2780 by MTS assay (Ribs et al., Mol. Biol. Cell 3:184a (1992), which is incorporated herein by reference). Cells were plated at 4,000 cells/well in 96 well microliter plates and, after 24 hours, halimide (dissolved in DMSO) was added and serially diluted. The cells were incubated with the compound at 37° C. for 72 hours, then the tetrazolium dye MTS was added to a final concentration of 333 μg/ml and the electron coupling agent phenazine methosulfate was added to a final concentration of 25 μM. A dehydrogenase enzyme in live cells reduces the MTS to a form that absorbs light at […], which can be quantitated spectrophotometrically.
# (§2) Assay results are expressed as an IC50, which is the drug concentration required to inhibit cell proliferation by 50% compared to growth of untreated control cells.
# Bcl-2 = Bcl-2 phosphorylation; type: cell-based
# [3] = test system: dividing cells (mitotic spindle); assay: Mitotic spindle / cell division in dividing cells; type: cell-based; details: exposure of dividing cells
# Excerpt: (§3) Since cancer cells generally divide more rapidly than their normal cell counterpart, cancer cells generally are more susceptible than the normal cells to mitotic inhibitors such as halimide.
# [4] = test system: 2X cycled bovine brain tubulin; assay: Inhibition of tubulin polymerization (2X cycled bovine brain tubulin, GTP); type: biochemical
# Excerpt: Thus, the compounds of the invention have an activity similar to vinca alkaloids, but are chemically distinct from the vinca alkaloids.
# [5] = test system: human ovarian carcinoma cell line A2780; assay: MTS cytotoxicity assay, A2780; type: cell-based; details: read-out: IC50, inhibition of cell proliferation
# Method: as §1, §2
# tubulin = assay: Binding to tubulin; details: each molecule of halimide to one tubulin molecule
# Excerpt: as §3
# [6] = test system: multi-drug resistant human colon carcinoma cells; assay: Cross-resistance, multi-drug resistant colon carcinoma cells; type: cell-based
# [7] = test system: paclitaxel-resistant A2780 cell line with altered tubulin; assay: Collateral sensitivity, paclitaxel-resistant A2780; type: cell-based, human
structure (smiles),measurement,setting,value
C=CC(C)(C)c1nc[nH]c1/C=C1\NC(=O)C(Cc2ccccc2)NC1=O (stereo not shown) [halimide],survival of leukemia bearing mice (in words),[1]; P388 model,significantly prolongs the survival of leukemia bearing mice
same,increase in life span,[1]; intraperitoneal injected P388 murine leukemia model,53%
same,optimal dose,"[1]; ip, P388 model",27 mg/kg/injection
same,T/C (median survival time of treated versus control),"[1]; optimal dose 27 mg/kg/injection, ip, daily for five treatments from first day after implantation",153%
same,cell cycle arrest (in words),carcinoma cells,arrested the cells at or near the G2/M boundary of the cell cycle
same,IC50,[2],1000 nM
same,Bcl-2 hyperphosphorylation (in words),Bcl-2,can hyperphosphorylate Bcl-2
same,block of the cell in a premitotic stage (in words),[3],blocked the cell in a premitotic stage within a few minutes; the cells did not divide
same,effect on mitotic spindle (in words),[3],disappearance of the mitotic spindle
same,inhibition of tubulin polymerization (in words),[4],inhibited tubulin polymerization
same,inhibition of tubulin polymerization,"[4]; 20 μM halimide, in the presence of GTP",55%
same,IC50,"[5]; A2780, 72 hours",820 nM
same,IC50,"[5]; Homo sapiens, A2780, 72 h",800 nM
same,binding to tubulin (in words),tubulin,bound tightly to one tubulin molecule
same,resistance of multi-drug resistant cells (in words),[6],not resistant
same,collateral sensitivity (in words),[7],collaterally sensitive
